Measurements: patent US10314883B2, “Compositions and methods for regulating blood pressure” (University of Virginia Patent Foundation, priority 2015, dated 2019)
Like-named read-outs stand apart in the source and are kept apart here. Values belong to the compound of their own block, whether it stands above or below them. No end group written: not given here.

Key:
[1] = test system: thoracodorsal arteries (TDA); details: for EC50: read-out: EC50 of agonist for TDA constriction
[2] = test system: thoracodorsal arteries (TDA); experiment: ATP release from intact TDA (luciferin:luciferase); assay type: cell-based, mouse; details: for ATP release from intact TDAs in response to agonist: five minutes of agonist, ARL67156 300 μmol/L
Experimental: Mouse TDAs of equal length were isolated and washed thoroughly to eliminate red blood cells. Vessels were placed in a well of a 96-well plate containing Krebs-HEPES solution supplemented with 1% BSA at 37° C. for 30 minutes to allow for degradation of any ATP released as a result of mechanical stimulation during manipulation of the vessel. For measurements performed on HEK cells: 24 hours after transfection, cells cultured in 24-well plates were cautiously washed twice with warm Krebs-HEPES-BSA and 300 μl of Krebs-HEPES-BSA was added to each well after the last wash as previously described. The plate was then kept in the incubator at 37° C. with 5% CO2 for 30 minutes to allow for degradation of ATP eventually released during the washes.
The ectonucleotidase inhibitor ARL67156 (300 μmol/L) was applied to each well. When indicated, ^10Panx1 (300 μmol/L) or the peptides analog to intracellular regions of Panx1 (3 μmol/L) were added along with the ARL67156. After a 30 minute incubation at 37° C. with the inhibitor(s), phenylephrine (100 μmol/L) or equivalent volume of Krebs-HEPES-BSA was added and the plate was kept at 37° C. After five minutes of phenylephrine stimulation, the media surrounding the TDA or the cells was transferred to an Eppendorf tube and centrifuged for five minutes at 5,000×g to eliminate eventual cell debris. Fifty microliters of the supernatant was transferred to a white-wall 96 well plate and placed in a FluoStar Omega luminometer. The ATP concentration was measured by adding 50 μL of luciferin:luciferase reagent (ATP bioluminescence assay kit HSII; Roche), which was injected into each well and the luminescence was immediately recorded. Data are expressed as a percent increase in ATP concentration compared to unstimulated condition. Each stimulated condition was compared to unstimulated condition performed on the same day, and all experiments were performed on at least 15 wells of HEK cells or three TDAs. Data were analyzed using a Kruskall Wallis test (non-parametric one-way ANOVA) followed by Dunn's post-hoc test.
To determine if the TDA response involved release of ATP, we dissected TDAs from C57Bl/6 mice and measured the accumulation of extracellular ATP in response to various agonists in the medium (FIG. 1E, inset). The TDAs were placed in a well of a 96 well plate in Krebs-HEPES solution and treated with the ectonucleotidase inhibitor ARL67156 for 30 minutes. Next, arteries were treated with a contractile agonist for five minutes and the amount of ATP in the media surrounding the vessel was determined using the ATP bioluminescence assay kit HSII (Roche).

[3] = test system: thoracodorsal arteries (TDA); experiment: tissue or blood; details: Mus musculus
[4] = test system: thoracodorsal arteries (TDA); experiment: Pressure myography: agonist-induced constriction of pressurized TDAs from C57Bl/6 mice with pannexin inhibitors or Panx1 mimetic peptides; assay type: cell-based, mouse; details: for effect on phenylephrine-induced constriction of pressurized TDAs: TAT-linked peptides, C57Bl/6 TDAs
Experimental: The contractile responses of pressurized thoracodorsal arteries (TDA) were measured as previously described. Briefly, TDA were isolated and placed in cold Krebs-HEPES until cannulation in a pressure arteriograph (Danish MyoTechnology). After a 30 minute equilibration period, cumulative concentrations of contractile agonists were applied to the TDA pressurized at 80 mmHg, and the vessel was visualized with an Olympus IX-71 microscope attached to a Hamamatsu EM-CCD camera coupled to Slidebook imaging software. […] Lastly, maximal diameter was measured at the end of each experiment in calcium-free Krebs-HEPES supplemented with EGTA (1 mmol/L) and sodium nitroprusside (10 μmol/L). In cases where the vessels were not constricting to the contractile agonist, their viability was assessed by applying 40 mM KCl and only TDA reaching 30% of the maximal diameter were considered for analysis. The contractile responses, as well as the basal tone, are expressed as a percentage of the maximal diameter.
Using pressure arteriography on TDA dissected from C57Bl/6 mice (as described; and aortic ring contraction, as described), we measured the effect of pannexin inhibitors, probenecid and 10Panx1, on the contractile response upon stimulation with different vasoconstrictors: phenylephrine (FIG. 1A), noradrenaline (also called norepinephrine) (FIG. 1B), serotonin (also known as 5-HT) (FIG. 1C) and endothelin-1 (FIG. 1D). […] In contrast, ^10Panx1 and probenecid had no effect on contraction of TDA measured in response to cumulative concentrations of serotonin or endothelin-1 (FIGS. 1C-D; Table 1).
To determine the region of Panx1 necessary for channel activation in response to α1AR stimulation, we produced short peptides derived from the intracellular regions of the Panx1 channel. We generated two peptides mimicking unique mouse Panx1 (mPanx1) sequences in the first intracellular loop (IL1 and IL2) and two peptides mimicking unique mPanx1 sequences in the C-terminal region, one in second intracellular loop (CT1) and one in the C-terminal tail (CT2) (FIG. 4A scissors indicate caspase 3 cleavage site; Table 3). All peptides also contained a TAT sequence to facilitate entry into cells and we verified the intracellular localization of each peptide by immunofluorescence detection of the TAT sequence in TDAs pre-incubated with each peptide (FIG. 7A). We tested the effect of each peptide on phenylephrine-induced contractile responses in pressurized TDAs from C57Bl/6 mice (FIGS. 4B-E). […] Note that these differences in effects of phenylephrine were similar in magnitude to those observed in arteries from SMC-specific Panx1-knockout mice and littermate controls (FIG. 2C, Table 2).

[5] = TDAs from Cre^+/Panx1^FL mice, tamoxifen-injected (SMC Panx1 knockout)
[6] = TDAs from Cre^+/Panx1^WT mice, tamoxifen-injected
[7] = TDAs from Cre^−/Panx1^FL mice, tamoxifen-injected
[8] = TDAs from Cre^−/Panx1^WT mice, tamoxifen-injected
[9] = read-out: EC50 of agonist for TDA constriction, TDAs from Cre^+/Panx1^FL mice, tamoxifen-injected (SMC Panx1 knockout)
[10] = read-out: EC50 of agonist for TDA constriction, TDAs from Cre^+/Panx1^WT mice, tamoxifen-injected
[11] = read-out: EC50 of agonist for TDA constriction, TDAs from Cre^−/Panx1^FL mice, tamoxifen-injected
[12] = read-out: EC50 of agonist for TDA constriction, TDAs from Cre^−/Panx1^WT mice, tamoxifen-injected
[13] = in presence of ^10Panx1 (300 μmol/L) or probenecid (2 mmol/L)
[14] = pannexin inhibitors, ^10Panx1 300 μmol/L, probenecid 2 mmol/L
[15] = in presence of the named peptide

Compound: CC[C@H](C)[C@H](NC(=O)[C@H](CC(=O)O)NC(=O)[C@H](CC(C)C)NC(=O)[C@H](Cc1c[nH]cn1)NC(=O)[C@@H]1CSSC[C@H](N)C(=O)N[C@@H](CO)C(=O)N[C@H]2CSSC[C@H](NC(=O)[C@H](CCC(=O)O)NC(=O)[C@H](CCCCN)NC(=O)[C@H](CC(=O)O)NC(=O)[C@H](CCSC)NC(=O)[C@H](CC(C)C)NC(=O)[C@H](CO)NC(=O)[C@H](CO)NC2=O)C(=O)N[C@@H](C(C)C)C(=O)N[C@@H](Cc2ccc(O)cc2)C(=O)N[C@@H](Cc2ccccc2)C(=O)N1)C(=O)N[C@H](C(=O)N[C@@H](Cc1c[nH]c2ccccc12)C(=O)O)[C@@H](C)CC [Endothelin-1, endothelin-1]
EMAX of agonist for TDA constriction [1, 5]: 38.9 ± 6.90 percentage of maximal diameter | EMAX of agonist for TDA constriction [1, 6]: 42.5 ± 4.82 percentage of maximal diameter | EMAX of agonist for TDA constriction [1, 7]: 42.2 ± 6.50 percentage of maximal diameter | EMAX of agonist for TDA constriction [1, 8]: 41.8 ± 4.95 percentage of maximal diameter | EC50 [1, 5]: 30.1 ± 14.6 nM | EC50 [1, 6]: 5.64 ± 2.94 nM | EC50 [1, 7]: 3.77 ± 0.56 nM | EC50 [1, 8]: 18.4 ± 10.9 nM | ATP release from intact TDAs in response to agonist [2]: neither serotonin nor endothelin-1 promoted ATP release

EC50 [3, 9]: 50500 ± 24800 nM | EC50 [3, 10]: 6780 ± 3200 nM | EC50 [3, 11]: 10300 ± 1300 nM | EC50 [3, 12]: 6280 ± 1450 nM
Compound: NC[C@H](O)c1ccc(O)c(O)c1 [Noradrenaline, noradrenaline]
EMAX of agonist for TDA constriction [1, 5]: 56.4 ± 5.61 percentage of maximal diameter | EMAX of agonist for TDA constriction [1, 6]: 48.2 ± 1.82 percentage of maximal diameter | EMAX of agonist for TDA constriction [1, 7]: 45.6 ± 5.40 percentage of maximal diameter | EMAX of agonist for TDA constriction [1, 8]: 41.4 ± 5.10 percentage of maximal diameter

Compound: CCCN(CCC)S(=O)(=O)c1ccc(C(=O)O)cc1 [Probenecid]
EMAX of endothelin-1 for TDA constriction [4, 13]: 34.6 ± 4.50 percentage of maximal diameter | EMAX of noradrenaline for TDA constriction [4, 13]: 74.9 ± 3.04 percentage of maximal diameter | EMAX of phenylephrine for TDA constriction [4, 13]: 72.6 ± 3.51 percentage of maximal diameter | EMAX of serotonin for TDA constriction [4, 13]: 39.5 ± 3.29 percentage of maximal diameter | effect on contraction of TDA in response to cumulative concentrations of serotonin or endothelin-1 [4, 14]: had no effect | effect on phenylephrine- and noradrenaline-mediated contraction of TDA [4, 14]: significantly inhibited

EC50 [3, 9]: 14.2 ± 5.53 nM | EC50 [3, 10]: 40.7 ± 12.2 nM | EC50 [3, 11]: 65.2 ± 40.9 nM | EC50 [3, 12]: 23.8 ± 5.07 nM
Compound: NCCc1c[nH]c2ccc(O)cc12 [Serotonin]
EMAX of agonist for TDA constriction [1, 5]: 38.2 ± 5.60 percentage of maximal diameter | EMAX of agonist for TDA constriction [1, 6]: 40.1 ± 4.59 percentage of maximal diameter | EMAX of agonist for TDA constriction [1, 7]: 30.4 ± 1.78 percentage of maximal diameter | EMAX of agonist for TDA constriction [1, 8]: 36.1 ± 2.68 percentage of maximal diameter | ATP release from intact TDAs in response to agonist [2]: neither serotonin nor endothelin-1 promoted ATP release

effect on phenylephrine-induced ATP release from intact TDAs ([2]; phenylephrine 100 μmol/L, ^10Panx1 300 μmol/L, peptides 3 μmol/L): no effect
Compound: YGRKKQRRR [TAT]
effect on phenylephrine-induced constriction of pressurized TDAs [4]: no significant effect | EMAX of phenylephrine for TDA constriction [4, 15]: 32.0 ± 6.21 percentage of maximal diameter

Compound: mPanx1 178-VGQSLWEISE-187 (SEQ ID NO: 4) linked with a TAT sequence (YGRKKQRRR) (also: linked with TAT sequence (YGRKKQRRR), end not given here; UniProt Q9JIP4 178-187, looked up, fragment) [IL1]
effect on phenylephrine-induced constriction of pressurized TDAs [4]: did not affect | EMAX of phenylephrine for TDA constriction [4, 15]: 32.3 ± 3.81 percentage of maximal diameter

Compound: mPanx1 381-IPTSLQTKGE-390 (SEQ ID NO: 6) linked with a TAT sequence (YGRKKQRRR) (also: linked with TAT sequence (YGRKKQRRR), end not given here; UniProt Q9JIP4 381-390, looked up, fragment) [CT2]
effect on phenylephrine-induced constriction of pressurized TDAs [4]: did not affect | EMAX of phenylephrine for TDA constriction [4, 15]: 52.3 ± 4.86 percentage of maximal diameter
